Experimental findings from paper PMC7552917, “Systematic exploration of different E3 ubiquitin ligases: an approach towards potent and selective CDK6 degraders” (Chemical Science, 2020) are described below.

One data set deals with T1, CDK4 (Homo sapiens, UniProt P11802).
T1 construct: Percentage values are normalized to DMSO-treated MM.1S cells and the respective loading controls; endogenous in cells; host or cells: MM.1S (human multiple myeloma)
Put plainly: CDK4 degradation, western blot of MM.1S cells. The class given is cell-based. Particulars: 16 h; for remaining activity at 0.1 µM: MM1.S, read-out: D CDK4: remaining CDK4 levels. For orientation: A western blot detects proteins with antibodies after separation by electrophoresis.

A further data set has as its target T2, CDK6 (Homo sapiens, UniProt Q00534).
T2 construct: Percentage values are normalized to DMSO-treated MM.1S cells and the respective loading controls; endogenous in cells; host or cells: MM.1S (human multiple myeloma)
Put plainly: CDK6 degradation, western blot of MM.1S cells. The class given is cell-based.

Data set [1] concerns MDA-MB-231 cells. Briefly: Cell migration (wound-healing) assay. The data set is classed as cell-based, human. Particulars: 0.1 μM, 24 h post-scratch. The method, then: In total 800.000 MDA-MB-231 breast cancer cells were seeded on uncoated 24-well plates (Starlab).
After 24 h DMEM medium (Pan Biotech) was removed, wells were washed twice with PBS and incubated with 0.1 µM palbociclib, 0.1 µM 34, 0.1 µM VH298 or DMSO in fresh FCS-free medium.
After 24 h of incubation, a scratch was conducted with a 100 µL pipette tip (Starlab), medium was removed, wells were washed twice with PBS and again incubated with fresh FCS-free medium containing the compounds at the aforementioned concentrations. Wound healing was observed microscopically for 24 h with 10-fold magnification (Axiovert 100, Zeiss, Germany). Migration speed was quantified according to the reduced scratch wound area over time.
(§1) Dose response curves were modeled and plotted by using GraphPad Prism software (GraphPad Software). Statistical analysis was performed using GraphPad Prism software (GraphPad Software).
(§2) Variance of biological replicates is represented as the standard error of the mean (SEM) or as the […]

For data set [2], the system named is MDA-MB-231 cells. Put plainly: Cell viability assay (CellTiter-Glo), MDA-MB-231 breast cancer cells. Particulars: 96 h. The data set is classed as cell-based, human. The method, then: Breast cancer cell lines:
To access the compound effect on cell viability, cells were plated in 384-well tissue culture-treated plates (Greiner Bio One). Twenty-four hours later, tested compounds were added into culture to the desired concentrations. Cell viability was measured by using CellTiter-Glo® Luminescent Cell Viability Assay (Promega) at day 4 or day 7 post-treatment and normalized by non-treated controls. […]
as §1, §2
Background: Cellular ATP, detected with luciferase, serves as a proxy for viable cell number.

Data set [3] relates to MM.1S, LP-1, AMO-1, MOLM-13, HEL, KG-1, K562, Nalm-6. Briefly: Cell viability assay (CellTiter-Glo), multiple myeloma and leukemia cell lines. The data set is classed as cell-based, human. Particulars: MM.1S, LP-1, AMO-1, MOLM-13, HEL, KG-1, K562, Nalm-6; 96 h, 0.1 or 1 μM. As to the method: (§3) Multiple myeloma, leukaemia, and murine cell lines:
(§4) Cells were seeded in 96-well plates with media containing indicated concentrations of respective compounds and plates were incubated at 37 °C for 96 hours. Readout was performed with CellTiter-Glo® Luminescent Cell Viability Assay (Promega) according to the manufacturer’s protocol and luminescence was measured with POLARStar Omega plate reader (BMG LabTech). All results were normalized to non-treated conditions and data represent mean ±SD of biological triplicates. […]
as §1, §2

The nature of data set [4]: elog D7.4 by chromatographic (HPLC) method. The data set is classed as physicochemical. Particulars: Polaris C18-A column, pH 7.4, read-out: elog D7.4 (experimental distribution coefficient at pH 7.4).
A short description of data set [5]: Susceptibility to hydrolysis in buffer, LC/MS. Particulars: buffer pH 1, 24 h, 37 °C. The data set is classed as physicochemical. The method, then: Next, we investigated the persistence of CDK6 degradation after single drug exposure. […] The differences were even more pronounced when conducting a drug washout-step, showing that while BSJ-03-123 kept CDK6 protein below 50% for a maximum of 6 h, CDK6 degradation mediated by PROTACs 27 and 34 was more persistent and stable for up to 72 h (Fig. 4E and S10, ESI ^†). […] Since these degraders mainly differ in the ligase-binding part, we hypothesized that the deviations in the long-term experiments (Fig. 5A) are due to chemical inactivation of the CRBN ligand. We then tested compounds 27, 34 (VHL-based) and BSJ-03-123 (8, CRBN-based) for susceptibility to hydrolysis. These PROTACs were incubated in two different buffers for 24 h at 37 °C and aliquots were analysed by LC/MS.
Fig. 5 (A) Quantification of long-term treatment experiments (see Fig. S9, ESI ^†) and (B) drug stability data at pH 1 and pH 7.4. Acetonitrile solutions of the PROTACs were mixed with two different buffers and incubated for 24 hours at 37 °C. Subsequently, aliquots were analysed by LC/MS and normalized to acetonitrile solutions.

In a further data set the test system is HEL cells. Put plainly: Cell viability assay (CellTiter-Glo), HEL cells. Particulars: Homo sapiens, 96 h. The data set is classed as cell-based. The method, then: as §3, §4, §1, §2

Read-outs that look alike come from different tables or passages of the source.

T1 sequence (P11802 whole entry): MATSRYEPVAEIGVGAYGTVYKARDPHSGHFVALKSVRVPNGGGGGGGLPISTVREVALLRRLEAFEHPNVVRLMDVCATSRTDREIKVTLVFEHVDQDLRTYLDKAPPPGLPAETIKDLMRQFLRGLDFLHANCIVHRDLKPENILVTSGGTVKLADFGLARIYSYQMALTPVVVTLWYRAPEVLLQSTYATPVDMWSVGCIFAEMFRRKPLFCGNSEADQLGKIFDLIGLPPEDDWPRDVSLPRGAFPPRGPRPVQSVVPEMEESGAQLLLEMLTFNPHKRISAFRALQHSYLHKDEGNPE
T2 sequence (Q00534 whole entry): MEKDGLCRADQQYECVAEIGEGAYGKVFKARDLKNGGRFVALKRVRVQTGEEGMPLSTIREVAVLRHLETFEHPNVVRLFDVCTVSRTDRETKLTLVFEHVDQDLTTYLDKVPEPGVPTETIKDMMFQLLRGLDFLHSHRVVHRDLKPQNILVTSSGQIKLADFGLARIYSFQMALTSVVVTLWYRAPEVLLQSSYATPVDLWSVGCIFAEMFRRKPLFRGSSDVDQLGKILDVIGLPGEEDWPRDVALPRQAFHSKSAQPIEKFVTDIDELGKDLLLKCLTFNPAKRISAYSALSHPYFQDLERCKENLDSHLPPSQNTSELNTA

Take `Cc1ncsc1-c1ccc(CNC(=O)[C@@H]2C[C@@H](O)CN2C(=O)[C@@H](NC(=O)C2(C#N)CC2)C(C)(C)C)cc1` [4 (VH298), VH298, reference compound]: the remaining activity at 0.1 µM at CDK4 was more than 95%; on CDK6 (MM1.S, 16 h, read-out: D CDK6: remaining CDK6 levels), more than 95%. In the data set with MDA-MB-231 cells [1], the “Reduction of wound healing” value is recorded as “did not affect the ability of MDA-MB-231 cells to migrate”.

Broadly, the DC50 is the midpoint of the concentration-degradation curve. A lower DC50 goes with degradation at low concentration. For orientation: Dmax means the greatest extent of degradation seen. The IC50 is the midpoint of a concentration-inhibition curve. In the case of `CC(=O)c1c(C)c2cnc(Nc3ccc(N4CCN(CCOCCOCCOc5cc(-c6scnc6C)ccc5CNC(=O)[C@@H]5C[C@@H](O)CN5C(=O)[C@@H](NC(=O)C5(F)CC5)C(C)(C)C)CC4)cn3)nc2n(C2CCCC2)c1=O` [34 (CST651)], the “Inhibitory activity on cell viability relative to palbociclib” value in the data set with MDA-MB-231 cells [2] is “inhibitory activity comparable to palbociclib”. Further, in data set [3], the “Effect on cell proliferation” value was “inhibited cell proliferation”. In addition, the remaining activity at 0.1 µM at CDK4 (0.1 μM, MM.1S cells, normalized to DMSO (100%)) turned out to be 44%; at CDK6 (MM1.S, 0.1 μM, 16 h, MM.1S cells, normalized to DMSO (100%), read-out: D CDK6: remaining CDK6 levels), 1.4%. Further, the 50% degradation concentration (DC50) on CDK4 (MM.1S cells) was found to be 20 nM; on CDK6 (MM.1S cells, 16 h, 1 μM value excluded (hook effect)) it was 5.1 nM. The chromatographic logD in data set [4] was 3.1. Besides, at CDK6 (0.1 μM, 16 h, MM.1S cells), the “Selectivity ratio D CDK4/D CDK6 for the degradation of CDK6 over CDK4” value was found to be 31. In addition, the remaining activity at 1 µM at CDK6 (MM1.S, 1 μM, 16 h, MM.1S cells, normalized to DMSO (100%), read-out: D CDK6: remaining CDK6 levels) was 8.5%. On CDK6 (MM1.S, MM.1S cells, 16 h, at a concentration as low as 100 nM, read-out: Dmax: maximum of CDK6 degradation), the Dmax is more than 95%. For the same compound, the “Time CDK6 degradation persists (CDK6 protein below 50%) after drug washout” value on CDK6 (MM.1S cells, 0.1 μM for 16 h, then washout with PBS) was “up to 72 h”. Also, the “Persistence of CDK6 degradation after single drug exposure (long-term treatment)” value at CDK6 (MM.1S cells, no washout) was “satisfactory CDK6 level suppression even after 96 h”. In addition, the “Reduction of wound healing” value in the data set on MDA-MB-231 cells [1] is given as 29%. Besides, in data set [5], the “Stability to hydrolysis at pH 1” value is on record as “stable”. In addition, in the data set on HEL cells, it took 450 nM to reach half-maximal inhibition (IC50).

On to `CC(=O)c1c(C)c2cnc(Nc3ccc(N4CCNCC4)cn3)nc2n(C2CCCC2)c1=O` [palbociclib, reference compound], for which the results for the half-inhibitory concentration (IC50) with MDA-MB-231 cells [2] (Homo sapiens) and in the data set on HEL cells were 260 nM and 4160 nM, respectively. Further, the “Reduction of wound healing” value in the data set with MDA-MB-231 cells [1] is reported as 17%.
